Data taken from US7341726B2, “Modified HCV peptide immunogens” (The United States of America as represented by the …, priority 1998, dated 2008).
Entries after “also recorded” stand apart in the source; their conditions may differ.

Key:
HLA-A2.1 = molecular target: T1, HLA-A2.1 (Homo sapiens, UniProt P04439, D140Y/D185E/D98H/E176V/E277Q/G131W/G231S/I119V/I121R/I166T/I218V/L300P/L318F/N151K/N90K/P208A/P217A/Q86G/Q94H/R138H/R169H/T345S); experiment: T2 binding assay: peptide stabilisation of cell-surface HLA-A2.1 (flow cytometry, BB7.2); settings: T2 cells; for FI0.5, the peptide concentration that increases HLA-A2.1 expression by 50% over no peptide control: overnight, with β2-microglobulin
T1 construct: The T2 cell line is deficient in TAP1 and TAP2 transporter proteins and expresses low levels of HLA-A2.1; endogenous in cells; host or cells: T2 cell line (TAP1/TAP2-deficient)
Procedure: FIGS. 1A and 1B. Binding of C7A2 Alanine (A) and non-Alanine (B)-substituted peptides to TAP-deficient HLA-A2.1. T2 cells were incubated overnight in a 96 well plate in CTM with 10 Φg/ml human β2-microglobulin and different peptide concentrations. The next day, cells were washed and HLA-A2.1 expression was assessed by flow cytometry using the anti HLA-A2 BB7.2 monoclonal antibody and FITC labeled goat anti mouse Ig. Results are expressed as fluorescence index (FI), calculated according to the formula: (mean fluorescence with peptide−mean fluorescence without peptide)/mean fluorescence without peptide. Background fluorescence without BB7.2 was subtracted for each individual value. FI0.5 represents those peptide concentrations that increase HLA-A2.1 expression by 50% over the no peptide control and were calculated from the titration curves for each particular peptide.
Peptide binding to HLA molecules was measured using the T2 mutant cell line according to a protocol previously described (53). T2 cells (3×10/well) were incubated overnight in 96-well plates with culture medium (1:1 mixture of RPMI 1640: EHAA containing 2.5% FBS, 100 U/ml penicillin, 100 Φg/ml streptomycin) with 10 Φg/ml β2-microglobulin (Sigma Chemical Co; St. Louis, Mo.) and different peptide concentrations. The next day, cells were washed twice with cold PBS containing 2% FBS and incubated for 30 min at 4 EC with anti HLA-A2.1 BB7.2 monoclonal antibody (1/80 dilution from hybridoma supernatant) and 5 Φg/ml FITC-labeled goat anti mouse Ig (Pharmingen; San Diego, Calif.). Cells were washed twice after each incubation and HLA-A2.1 expression was measured by flow cytometry on a FACScan (Becton Dickinson). HLA-A2.1 expression was quantified as fluorescence index (FI) according to the formula: FI=(mean fluorescence with peptide—mean fluorescence without peptide)/mean fluorescence without peptide. Background fluorescence without BB7.2 antibody was subtracted for each individual value. In order to compare the different peptides, FI0.5, the peptide concentration that increases HLA-A2.1 expression by 50% over no peptide control background, was calculated from the titration curve for each peptide.
The binding affinity of wild-type C7A2 peptide (C7A2-WT) was evaluated with a T2 binding assay (53), which measures the cell surface stabilization of HLA-A2.1 molecules after incubation with peptide. In order to compare the different peptides, a fluorescence index value of 0.5 (FI0.5), the peptide concentration that increases HLA-A2.1 expression by 50%, was chosen as a way to compare titrations of the peptides and relative affinity for MHC molecules. Using this method, FI0.5 of 10 ΦM was calculated for C7A2-WT.

human CTL line ViT2 = experiment: Recognition of C7A2-variant peptides by human CTL line ViT2 (51Cr release, C1R.A2.1 targets); assay type: cell-based; settings: for Recognition by human CTL line (lysis of peptide-sensitized target cells): E/T 5/1, peptide titration
[1] = tested on: transgenic AAD mouse CTL lines AAD.10 and AAD.1; experiment: Recognition of C7A2-variant peptides by AAD transgenic mouse CTL lines (51Cr release, C1R.AAD targets); assay type: cell-based; settings: lines AAD.10 and AAD.1, C1R.AAD targets, E/T 10/1
AAD transgenic mice [2] = experiment: In vivo immunogenicity of C7A2-derived peptides in AAD transgenic mice (CTL assay); parameters: species or system mouse; settings: 50 nmol CTL epitope plus helper epitope, GM-CSF, IL-12 in IFA; targets pulsed with immunizing peptide
AAD transgenic mice [3] = experiment: Induction of CTL immune response against C7A2-WT in AAD transgenic mice; assay type: in vivo, mouse; settings: 50 or 15 nmol CTL epitope; for CTL response to C7A2-WT after immunization: targets pulsed with C7A2-WT
Excerpt: FIGS. 5A and 5B. […] Two weeks later, mice were boosted under the same conditions and 10-14 days after the boost, spleen cells were removed and stimulated in vitro with 10 ΦM CTL peptide-pulsed spleen cells.

A2Kb transgenic mice [4] = experiment: Induction of CTL immune response against C7A2-WT in A2Kb transgenic mice; assay type: in vivo, mouse; settings: 50 nmol, E/T 120:1 for C7A2-WT, 70:1 for 8A
Excerpt: FIG. 6. […] Two weeks later, mice were boosted under the same conditions and 10-14 days after the boost, spleen cells were removed and stimulated in vitro with 10 ΦM CTL peptide-pulsed spleen cells.

[5] = tested on: short term CTL lines from AAD transgenic mice; settings: C1R.AAD targets titrated with C7A2-WT, E:T 10:1
Excerpt: FIG. 7. […] Two weeks later, mice were boosted under the same conditions and 10-14 days after the boost, spleen cells were removed and stimulated in vitro with 10 ΦM CTL peptide-pulsed spleen cells.

A2Kb transgenic mice [6] = settings: 50 nmol, targets with 10 ΦM peptide
Procedure: (§1) FIGS. 8A and 8B. […] AAD (A) and A2Kb (B) transgenic mice were immunized with 50 nmol CTL epitope 8A plus 50 nmol HBVc 128-140 helper epitope in IFA. Two weeks later, mice were boosted under the same conditions and 10-14 days after the boost, spleen cells were removed and stimulated in vitro with 10 ΦM CTL peptide-pulsed spleen cells. After two weeks of in vitro stimulation, a CTL assay was performed with target cells (Con A blasts) incubated with the different peptides at 10 ΦM.
(§2) This peptide is common in viral isolates from HCV genotypes 2a and 2b (56,57).

AAD transgenic mice [7] = settings: 50 nmol, targets with 10 ΦM peptide
Procedure: as §1, §2

Row | Substance | FI0.5, the peptide concentration that increases HLA-A2.1 expression by 50% over no peptide control (HLA-A2.1) | Recognition by human CTL line (lysis of peptide-sensitized target cells) (human CTL line ViT2) | Recognition by AAD mouse CTL lines (sensitization of target cells) [1] | Binding to HLA-A2.1 (in words, compared with C7A2-WT) (HLA-A2.1) | Titration concentration relative to C7A2-WT (human CTL line ViT2; human CTL line) | Induction of CTL response by immunization (AAD transgenic mice [2]) | CTL response to 8A after immunization (AAD transgenic mice [3]; targets pulsed with 8A) | CTL response to C7A2-WT after immunization (AAD transgenic mice [3]) | CTL immune response after immunization (A2Kb transgenic mice [4]) | C7A2-WT concentration for comparable killing, CTL raised against 8A versus CTL raised against C7A2-WT [5] | Cross-recognition of peptide 8V by CTL induced by immunization (A2Kb transgenic mice [6]) | Cross-recognition of peptide 8V by CTL induced by immunization (AAD transgenic mice [7])
1 | 8V: C7A2 peptide with position 8 L replaced by V; sequence common in HCV genotypes 2a and 2b (DLMGYIPVV) [Peptide 8V, reference compound] | 15 ΦM | behaved similarly to C7A2-WT | recognized at higher concentrations than determined for C7A2-WT | – | – | – | – | – | – | – | – | –
2 | DLMGYIPAV [Peptide 8A] | around 2 ΦM | higher levels of lysis than C7A2-WT | able to sensitize target cells in a concentration range around that of C7A2-WT | higher affinity; also recorded: bind at lower concentrations than C7A2-WT | 10 fold lower concentrations | able to induce clear CTL responses; also recorded: induced higher levels of lysis | positive responses to 8A itself | strong responses to C7A2-WT | higher level of response | more than 100 fold lower | recognize peptide 8V | recognize peptide 8V
3 | DLMGYIPLV [Peptide C7A2-WT, naturally occurring peptide at positions 132-140 in the HCV core polypeptide, reference compound] | 10 ΦM | – | – | – | – | able to induce clear CTL responses | – | two of the four animals | low response | – | – | –
